Experimental data as given in US12516049B2, “Sulfonylurea ring substituted monocyclic β-lactam antibiotics” (priority 2019, dated 2026).
≈ marks a conversion by molar mass, not a printed value.

Legend:
E. coli ATCC-25922 = assay: Mouse thigh muscle model, E. coli ATCC-25922; format: in vivo; conditions: immunosuppressed female CD-1 mice; E. coli ATCC-25922 1.36E+06 CFU/mouse; 100 mg/kg subcutaneously at 2, 4, 6, 8 h after infection; end point 10 h
Method: 9 female CD-1 mice were divided into 3 cages, 3 mice per cage, and were injected intraperitoneally with immunosuppressant cyclophosphamide (150 mg/kg). 24 hours later, 3 cages of mice were injected intraperitoneally again with immunosuppressant cyclophosphamide (100 mg/kg). The strain E. coli ATCC-25922 was recovered on an MHA plate. The recovered colonies were picked and dissolved in saline to prepare E. coli ATCC-25922 bacterial solution with a concentration of 1.36E+07 CFU/mL for use in mouse thigh muscle infection. The amount of bacterial solution injected into the thigh muscle of the experimental mice was 100 μL/mouse, that is, the inoculation amount was 1.36E+06 CFU/mouse. 2 h after infection, the thigh muscle tissue of the mice in control group was taken and placed in 10 mL saline, homogenized, and dotted on a plate with gradient dilution. The specific administration of mice was as follows: (1) 2 h after infection: At the end point of 2 h infection, the thigh muscle tissue of the mice in the first cage was taken and placed in 10 mL saline, homogenized, and dotted on a plate with gradient dilution, two duplications for each mouse. The amount of bacteria loaded in the thigh muscle tissue of the mouse was counted. […] The amount of bacteria loaded in the thigh muscle tissue of the mouse was counted, and the experimental results were sorted and shown in Table 4.

[1] = system: Escherichia coli ATCC BAA-2523 (OXA-48); assay: MIC, micro-liquid dilution (CLSI); format: cell-based; conditions: ATCCBAA2523, E. coli ATCC BAA-2523, Class D (OXA-48), 20-24 h, 37° C., read-out: MIC
Method: (§1) Three strains of Klebsiella pneumonia, ATCC BAA-205 (TEM-1/SHV-1/SHV-12), ATCC BAA-1705 (KPC-2), ATCC BAA-2470 (NDM-1), Enterobacter cloacae ATCC BAA-1143 (AmpC), two strains of Escherichia coli ATCC BAA-2523 (OXA-48), ATCC 25922 were used to determine the minimum inhibitory concentration (MIC) of each of the compounds by micro-liquid dilution method according to the Institute of Clinical and Laboratory Standard (CLSI) requirements. […]. The plate was placed upside down at 37° C. and the MIC value was read after 20-24 h of incubation, and the lowest drug concentration that inhibited the growth of bacteria was set as MIC. Colony-Forming Units (CFU) refer to the total number of bacterial colonies per unit volume.

[2] = system: Escherichia coli ATCC 25922; assay: MIC, micro-liquid dilution (CLSI); format: cell-based; conditions: ATCC25922, E. coli ATCC 25922, 20-24 h, 37° C.
Method: as §1

[3] = system: Klebsiella pneumonia ATCC BAA-1705 (KPC-2); assay: MIC, micro-liquid dilution (CLSI); format: cell-based; conditions: Klebsiella pneumoniae, ATCCBAA1705; K. pneumonia ATCC BAA-1705, Class A (KPC-2); 20-24 h, 37° C.
Method: as §1

[4] = system: Enterobacter cloacae ATCC BAA-1143 (AmpC); assay: MIC, micro-liquid dilution (CLSI); format: cell-based; conditions: ATCCBAA1143, E. cloacae ATCC BAA-1143, Class C (AmpC), 20-24 h, 37° C.
Method: as §1

[5] = system: Klebsiella pneumonia ATCC BAA-2470 (NDM-1); assay: MIC, micro-liquid dilution (CLSI); format: cell-based; conditions: Klebsiella pneumoniae, ATCCBAA2470; K. pneumonia ATCC BAA-2470, Class B (NDM-1); 20-24 h, 37° C.
Method: as §1

[6] = system: Klebsiella pneumonia ATCC BAA-205 (TEM-1/SHV-1/SHV-12); assay: MIC, micro-liquid dilution (CLSI); format: cell-based; conditions: Klebsiella pneumoniae, ATCCBAA205; K. pneumonia ATCC BAA-205, Class A (TEM-1/SHV-1/SHV-12); 20-24 h, 37° C.
Method: as §1

E.coli 020028 = assay: MIC, two-fold agar dilution, clinical isolate; format: cell-based; conditions: Escherichia coli, single drug, average of three tests
Method: (§2) The minimum inhibitory concentration (MIC) of the compound and combination with β-lactamase (MBLs) inhibitors against clinically isolated carbapenem-resistant enterobacteriaceae was determined by the two-fold agar dilution method to determine the activity of the compound to be tested against strains producing MBLs. Antibiotics and enzyme inhibitors were weighed separately and dissolved in sterile ultrapure water or dimethyl sulfoxide to prepare mother liquor, MHA medium was prepared, pH was adjusted to 7.2-7.4, and it was sterilized at 121° C. for 15 minutes and placed in a 55° C. water bath for heat preservation. The mother liquor was diluted to the concentration to be tested by double dilution method, an inoculum liquid was prepared by direct bacterial suspension method, 1 mL of the prepared bacteria solution was withdrawn and putted into the inoculation tube, and a positioning needle and an inoculation needle were installed. A bacterial multi-point inoculator was started for inoculation. After the bacterial solution was absorbed by the agar, the plate was placed upside down in an incubator at 37° C. for 16-20 hours, and the results were observed. The average of three tests was taken.

E.coli CRE23 = assay: MIC, two-fold agar dilution, clinical isolate; format: cell-based; conditions: Escherichia coli; E.coli CRE23; single drug; average of three tests; read-out: MIC
Method: as §2

E.coli BAA-2452 = assay: MIC, two-fold agar dilution, clinical isolate; format: cell-based; conditions: Escherichia coli, BAA2452; E.coli BAA-2452; single drug; average of three tests; read-out: MIC
Method: as §2

E.coli 020033 = assay: MIC, two-fold agar dilution, clinical isolate; format: cell-based; conditions: Escherichia coli, single drug, average of three tests
Method: as §2

E.coli CRE21 = assay: MIC, two-fold agar dilution, clinical isolate; format: cell-based; conditions: Escherichia coli; E.coli CRE21; single drug; average of three tests; read-out: MIC
Method: as §2

E.coli CRE18 = assay: MIC, two-fold agar dilution, clinical isolate; format: cell-based; conditions: Escherichia coli; E.coli CRE18; single drug; average of three tests; read-out: MIC
Method: as §2

K.p C904 = assay: MIC, two-fold agar dilution, clinical isolate; format: cell-based; conditions: K.p C904; single drug; average of three tests; read-out: MIC
Method: as §2

E.coli CRE28 = assay: MIC, two-fold agar dilution, clinical isolate; format: cell-based; conditions: Escherichia coli; E.coli CRE28; single drug; average of three tests; read-out: MIC
Method: as §2

K.p HX37 = assay: MIC, two-fold agar dilution, clinical isolate; format: cell-based; conditions: K.p HX37; single drug; average of three tests; read-out: MIC
Method: as §2

K.p CRE16 = assay: MIC, two-fold agar dilution, clinical isolate; format: cell-based; conditions: single drug, average of three tests
Method: as §2

K.p CRE12 = assay: MIC, two-fold agar dilution, clinical isolate; format: cell-based; conditions: single drug, average of three tests
Method: as §2

K.p 090339 = assay: MIC, two-fold agar dilution, clinical isolate; format: cell-based; conditions: K.p 090339; single drug; average of three tests; read-out: MIC
Method: as §2

E.coli 115103 = assay: MIC, two-fold agar dilution, clinical isolate; format: cell-based; conditions: Escherichia coli; E.coli 115103; single drug; average of three tests; read-out: MIC
Method: as §2

E.coli C1569 = assay: MIC, two-fold agar dilution, clinical isolate; format: cell-based; conditions: Escherichia coli, single drug, average of three tests
Method: as §2

K.p 11544 = assay: MIC, two-fold agar dilution, clinical isolate; format: cell-based; conditions: K.p 11544; single drug; average of three tests; read-out: MIC
Method: as §2

K.p CRE11 = assay: MIC, two-fold agar dilution, clinical isolate; format: cell-based; conditions: K.p CRE11; single drug; average of three tests; read-out: MIC
Method: as §2

K.p HX77 = assay: MIC, two-fold agar dilution, clinical isolate; format: cell-based; conditions: single drug, average of three tests
Method: as §2

K.p BAA-2470 = assay: MIC, two-fold agar dilution, clinical isolate; format: cell-based; conditions: K.p BAA-2470; single drug; average of three tests; read-out: MIC
Method: as §2

K.p 6777 = assay: MIC, two-fold agar dilution, clinical isolate; format: cell-based; conditions: K.p 6777; single drug; average of three tests; read-out: MIC
Method: as §2

K.p 115004 = assay: MIC, two-fold agar dilution, clinical isolate; format: cell-based; conditions: K.p 115004; single drug; average of three tests; read-out: MIC
Method: as §2

E.coli 020031 = assay: MIC, two-fold agar dilution, clinical isolate; format: cell-based; conditions: Escherichia coli, single drug, average of three tests
Method: as §2

[7] = system: Morganella morganii C1274; assay: MIC, two-fold agar dilution, clinical isolate; format: cell-based; conditions: Morganella morganii C1274; single drug; average of three tests; read-out: MIC
Method: as §2

K.p 13249 = assay: MIC, two-fold agar dilution, clinical isolate; format: cell-based; conditions: K.p 13249; single drug; average of three tests; read-out: MIC
Method: as §2

[8] = system: clinically isolated carbapenem-resistant enterobacteriaceae; format: cell-based; conditions: single drug; panel of 26 strains of Table 2
Method: as §2, with “Antibiotics and enzyme inhibitors were weighed separately and dissolved in sterile ultrapure water or dimethyl sulfoxide to prepare mother liquor, MHA medium was prepared, pH was adjusted to 7.2-7.4, and it was sterilized at 121° C. for 15 minutes and placed in a 55° C. water bath for heat preservation.” left out

E.coli 115101 = assay: MIC, two-fold agar dilution, clinical isolate; format: cell-based; conditions: Escherichia coli; E.coli 115101; single drug; average of three tests; read-out: MIC
Method: as §2, with “Antibiotics and enzyme inhibitors were weighed separately and dissolved in sterile ultrapure water or dimethyl sulfoxide to prepare mother liquor, MHA medium was prepared, pH was adjusted to 7.2-7.4, and it was sterilized at 121° C. for 15 minutes and placed in a 55° C. water bath for heat preservation.” left out

K.p HX30 = assay: MIC, two-fold agar dilution, clinical isolate; format: cell-based; conditions: K.p HX30; single drug; average of three tests; read-out: MIC
Method: as §2, with “Antibiotics and enzyme inhibitors were weighed separately and dissolved in sterile ultrapure water or dimethyl sulfoxide to prepare mother liquor, MHA medium was prepared, pH was adjusted to 7.2-7.4, and it was sterilized at 121° C. for 15 minutes and placed in a 55° C. water bath for heat preservation.” left out

E.coli 115105 = assay: MIC, two-fold agar dilution, clinical isolate; format: cell-based; conditions: Escherichia coli, single drug, average of three tests
Method: as §2, with “Antibiotics and enzyme inhibitors were weighed separately and dissolved in sterile ultrapure water or dimethyl sulfoxide to prepare mother liquor, MHA medium was prepared, pH was adjusted to 7.2-7.4, and it was sterilized at 121° C. for 15 minutes and placed in a 55° C. water bath for heat preservation.” left out

SMILES: Nc1nc(/C(=N/OC2(C(=O)O)CC2)C(=O)N[C@@H]2C(=O)N(S(=O)(=O)O)[C@@H]2CN2CCNS2(=O)=O)cs1 [Compound 1]
- Average CFU of the mouse (amount of bacteria loaded in thigh muscle tissue) (E. coli ATCC-25922): 2.25E+05 CFU
- MIC [1]: 0.5 µg/mL (≈ 0.903 µM)
- MIC [2]: 1 µg/mL (≈ 1.81 µM)
- MIC [3]: 0.5 µg/mL (≈ 0.903 µM)
- MIC [4]: 1 µg/mL (≈ 1.81 µM)
- MIC [5]: 0.5 µg/mL (≈ 0.903 µM)
- MIC [6]: 0.5 µg/mL (≈ 0.903 µM)

SMILES: Nc1nc(/C(=N/OC2(C(=O)O)CC2)C(=O)N[C@@H]2C(=O)N(S(=O)(=O)O)[C@@H]2CN2CCOC2=O)cs1 [LYS 228]
- MIC (E.coli 020028): 0.125 µg/mL
- MIC (E.coli CRE23): 2 µg/mL
- MIC (E.coli BAA-2452): 0.5 µg/mL
- MIC (E.coli 020033): 8 µg/mL
- MIC (E.coli CRE21): 4 µg/mL
- MIC (E.coli CRE18): 4 µg/mL
- MIC (K.p C904): 0.125 µg/mL
- MIC (E.coli CRE28): 4 µg/mL
- MIC (K.p HX37): 0.5 µg/mL
- MIC (K.p CRE16): 0.06 µg/mL
- MIC (K.p CRE12): 0.125 µg/mL
- MIC (K.p 090339): 0.25 µg/mL
- MIC (E.coli 115103): 8 µg/mL
- MIC (E.coli C1569): 4 µg/mL
- MIC (K.p 11544): 0.125 µg/mL
- MIC (K.p CRE11): 0.125 µg/mL
- MIC (K.p HX77): 0.03 µg/mL
- MIC (K.p BAA-2470): 0.25 µg/mL
- MIC (K.p 6777): 1 µg/mL
- MIC (K.p 115004): 0.25 µg/mL
- MIC (E.coli 020031): 4 µg/mL
- MIC [7]: 0.25 µg/mL
- MIC (K.p 13249): 0.125 µg/mL
- MIC50 [8]: 0.5 µg/mL
- MIC90 [8]: 4 µg/mL
- MIC (E.coli 115101): 4 µg/mL
- MIC (K.p HX30): 2 µg/mL
- MIC (E.coli 115105): 4 µg/mL
